Literature values as cited in publication PMC7395068, “The evolution of strategies to minimise the risk of human drug-induced liver injury (DILI) in drug discovery and development” (Archives of Toxicology, 2020).
Read-outs that look alike come from different tables or passages of the source.

Tests used:
HepG2 cells = settings: cited from earlier work
[1] = cited from earlier work
human hepatocytes = settings: In vitro Assay; ref Xu 2008; cited from earlier work
[2] = system: THLE or HepG2 cells, isolated mitochondria, BSEP; settings: In vitro Assay; ref Aleo 2019; cited from earlier work
[3] = ref Chen 2016; cited from earlier work
[4] = In vitro Assay, ref Tolosa 2012
[5] = assignment in Tolosa 2012, ref Tolosa 2012

SMILES: CC(=N)S [thioacetamide]
- Structural based (HCI) (HepG2 cells; [4]): -VE
- In vivo DILI ([1]; ref O'Brien 2006): +VE
- In vivo DILI ([1]; ref Tolosa 2012): +VE
- In vivo DILI ([1]; ref Xu 2008): +VE
- Structural based (HCI) (human hepatocytes): -VE

SMILES: C[C@H](CCC(=O)NCCS(=O)(=O)O)[C@H]1CC[C@H]2[C@@H]3CC[C@@H]4C[C@H](O)CC[C@]4(C)[C@H]3CC[C@]12C [taurolithocholate]
- Structural based (HCI), In vitro Assay (HepG2 cells; HepG2 HCI, ref Tolosa 2012): +VE
- In vivo DILI [1, 5]: +VE

SMILES: Oc1c(Cl)c(Cl)c(Cl)c(Cl)c1Cl [pentachlorophenol]
- Structural based (HCI) (HepG2 cells): +VE
- In vivo DILI ([1]; in vivo): +VE

SMILES: NCC[C@H](O)C(=O)N[C@@H]1C[C@H](N)[C@@H](O[C@H]2O[C@H](CN)[C@@H](O)[C@H](O)[C@H]2O)[C@H](O)[C@H]1O[C@H]1O[C@H](CO)[C@@H](O)[C@H](N)[C@H]1O [amikacin]
- Structural based (HCI) (HepG2 cells; [4]): -VE
- In vivo DILI ([1]; ref Aleo 2019): -VE
- In vivo DILI ([1]; ref Tolosa 2012): +VE
- Partition Hybrid HRM Score [2]: +VE
- Ro2 Hybrid HRM Score [2]: +VE
- DILI +VE (5-8), DILI -VE (-4) [3]: -VE
- DILI severity category [3]: vNo-DILI-Concern

SMILES: C[n+]1ccc(-c2cc[n+](C)cc2)cc1 [paraquat]
- Structural based (HCI), In vitro Assay (HepG2 cells; HepG2 HCI, ref Tolosa 2012): +VE
- In vivo DILI [1, 5]: +VE

SMILES: OC[C@@H](O)[C@@H](O)[C@H](O)[C@@H](O)CO [sorbitol]
- Structural based (HCI) (HepG2 cells; [4]): -VE
- In vivo DILI ([1]; ref O'Brien 2006): -VE
- In vivo DILI ([1]; ref Tolosa 2012): -VE
- In vivo DILI ([1]; ref Xu 2008): -VE
- Structural based (HCI) (human hepatocytes): -VE
- DILI +VE (5-8), DILI -VE (-4) [3]: -VE
- DILI severity category [3]: vNo-DILI-Concern

SMILES: CC(C)(C)OO [tert-butyl hydroperoxide]
- Structural based (HCI), In vitro Assay (HepG2 cells): +VE
- In vivo DILI ([1]; in vivo): +VE

SMILES: C[C@@H]1C[C@@H]([C@H](O)CC2CC(=O)NC(=O)C2)C(=O)[C@@H](C)C1 [cycloheximide]
- Structural based (HCI) (HepG2 cells): +VE
- In vivo DILI ([1]; in vivo): +VE

SMILES: O=[N+]([O-])c1ccc(O)c([N+](=O)[O-])c1 [2,4 dinitrophenol]
- Structural based (HCI) (HepG2 cells; [4]): +VE
- In vivo DILI ([1]; ref Tolosa 2012): +VE

SMILES: CC(=O)Nc1cccc(O)c1 [3-acetamidophenol]
- Structural based (HCI) (HepG2 cells; [4]): -VE
- In vivo DILI ([1]; ref O'Brien 2006): -VE
- In vivo DILI ([1]; ref Tolosa 2012): -VE
- In vivo DILI ([1]; ref Xu 2008): -VE
- Structural based (HCI) (human hepatocytes): -VE

SMILES: CCN(CC)CCOc1ccc2c(c1)C(=O)c1cc(OCCN(CC)CC)ccc1-2 [tilorone]
- Structural based (HCI), In vitro Assay (HepG2 cells; HepG2 HCI, ref Tolosa 2012): +VE
- In vivo DILI [1, 5]: +VE

SMILES: OC[C@H]1O[C@@H](O[C@H]2[C@H](O)[C@@H](O)C(O)O[C@@H]2CO)[C@H](O)[C@@H](O)[C@H]1O (mixture of isomers) [lactose]
- Structural based (HCI) (HepG2 cells): -VE
- In vivo DILI ([1]; in vivo): -VE

SMILES: N[C@H]1C(O)O[C@H](CO)[C@H](O)[C@@H]1O (stereo partly shown) [galactosamine]
- Structural based (HCI) (HepG2 cells; [4]): -VE
- In vivo DILI ([1]; ref O'Brien 2006): +VE
- In vivo DILI ([1]; ref Tolosa 2012): +VE

SMILES: [Cl][Hg][Cl] [mercury ii chloride]
- Structural based (HCI), In vitro Assay (HepG2 cells; HepG2 HCI, ref Tolosa 2012): +VE
- In vivo DILI [1, 5]: +VE

SMILES: C[C@H](CCC(=O)NCC(=O)O)[C@H]1CC[C@H]2[C@@H]3[C@H](O)C[C@@H]4C[C@H](O)CC[C@]4(C)[C@H]3CC[C@]12C [glycochenodeoxycholate]
- Structural based (HCI), In vitro Assay (HepG2 cells; HepG2 HCI, ref Tolosa 2012): +VE
- In vivo DILI [1, 5]: +VE

SMILES: CCCCOCCOCCOCc1cc2c(cc1CCC)OCO2 [piperonyl butoxide]
- Structural based (HCI), In vitro Assay (HepG2 cells; HepG2 HCI, ref Tolosa 2012): +VE
- In vivo DILI [1, 5]: +VE
